Measurements: patent US20260226026A1, “COMPOUND AS CTPS1 INHIBITOR” (Hangzhou Innogate Pharma Co., Ltd., priority 2023, published 2026)

How the values were obtained:
[1] = molecular target: T1, hCTPS1 enzyme (Homo sapiens, UniProt P17812); test: Inhibition of CTPS1 enzyme activity (ADP-Glo method); type: biochemical; conditions: hCTPS1, 90 min reaction at 25° C.
T1 sequence (P17812 1-591): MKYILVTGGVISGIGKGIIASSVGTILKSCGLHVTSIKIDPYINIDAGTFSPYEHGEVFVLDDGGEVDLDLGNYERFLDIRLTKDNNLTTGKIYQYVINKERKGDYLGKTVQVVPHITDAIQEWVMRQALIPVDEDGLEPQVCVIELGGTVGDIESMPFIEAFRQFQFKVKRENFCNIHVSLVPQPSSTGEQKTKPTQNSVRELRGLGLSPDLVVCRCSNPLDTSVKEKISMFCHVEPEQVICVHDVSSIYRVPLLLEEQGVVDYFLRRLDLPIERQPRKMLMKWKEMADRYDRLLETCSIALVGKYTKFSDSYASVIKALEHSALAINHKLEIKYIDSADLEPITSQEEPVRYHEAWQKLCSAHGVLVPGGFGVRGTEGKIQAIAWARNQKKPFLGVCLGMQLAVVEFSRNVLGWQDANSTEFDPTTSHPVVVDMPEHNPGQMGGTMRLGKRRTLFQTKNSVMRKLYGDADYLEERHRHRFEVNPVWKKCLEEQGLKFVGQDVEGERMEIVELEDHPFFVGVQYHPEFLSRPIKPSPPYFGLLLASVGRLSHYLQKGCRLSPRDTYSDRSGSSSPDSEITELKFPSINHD
Description: The enzyme activity of CTPS1 was tested using the ADP-Glo method. Compounds were serially diluted in DMSO with 3-fold gradients across ten concentrations. Transfer 0.1 μL of diluted compound to a 384-well plate, centrifuge at 1000 rpm for 1 min. Add 2.5 μL of hCTPS1 enzyme working solution, centrifuge at 1000 rpm for 1 min, and incubate at 25° C. for 10 min. Add 2.5 μL of ATP & UTP solution and incubate at 25° C. for 10 min. Add 5 μL of substrate solution to initiate the reaction and incubate at 25° C. for 90 min. Add 10 μL of ADP-Glo solution to the 384-well plate, centrifuge at 1000 rpm for 1 min, incubate at 25° C. for 40 min, add 20 μL of detection solution, centrifuge at 1000 rpm for 1 min, and incubate at 25° C. for 60 min. […] were read using a BMG microplate reader. Inhibition rate (%) was calculated as follows: Inhibition rate (%)=[(DMSO control well signal−Compound well signal)/(DMSO control well signal−Blank control well signal)]×100%. IC50 values for compounds were analyzed by nonlinear regression in XLFit 5.5.0 software using the formula: Y=Bottom+(Top−Bottom)/(1+10^((LogIC50−X)*HillSlope)) where Y is the inhibition rate and X is the log value of compound concentration.

[2] = tested on: Jurkat cells; test: Inhibition of Jurkat cell proliferation (CellTiter-Glo, 72 hours); type: cell-based; conditions: Homo sapiens; Jurkat cells, 72 hours, CellTiter-Glo; read-out: Jurkat (IC50)
Description: Select Jurkat cells in good growth condition and digest them with trypsin. Add fresh culture medium, mix thoroughly, and centrifuge at 1000 rpm for 5 minutes. Seed the cells into a 96-well plate at a density of 10,000 cells per well, and incubate overnight in a 37° C. incubator. On the following day, take out of the culture plate and treat the cells with compounds prepared in a five-fold serial dilution. Return the plate to the 37° C. incubator and continue incubation for 72 hours.
After incubation, bring out the cell culture plate and equilibrate it to room temperature. Add 100 μL of CellTiter-Glo reagent to each well, shake in the dark for 2 minutes, and incubate for 10 minutes. Measure the luminescence using an Enspire plate reader. Calculate the inhibition rate using the following formula: Inhibition rate (%)=(1−(RLU_compound−RLU_blank)/(RLU_DMSO−RLU_blank))×100%. Plot the dose-response curve and calculate the IC50 value using XLFit.

[3] = in vivo; design: species or system SD rats; conditions: male, SD, rat, po
Description: Instrumentation: SCIEX Triple Quad 6500+ triple quadrupole liquid chromatography-mass spectrometry system (LC-MS/MS), operating software is Analyst 1.7.2 (Applied Biosystems, USA); ExionLC liquid chromatography system; Microsoft Excel was used for data calculation and processing. Pharmacokinetic parameters were calculated using the statistical moment method with WinNonlin 8.2 software. Key kinetic parameters included Tmax, T1/2, Cmax, AUC0-24 h etc. Column: Synergi 4 μm Fusion-RP 80 Å Luna C18 2 mm*50 mm, 4 μm; Column temperature: 40° C.; Mobile phase A: Water (0.1% formic acid); Mobile phase B: Acetonitrile; Flow rate: 0.8 mL/min; Gradient elution is adopted, the elution gradient is 0.10 min: 15% B; 1.60 min: 95% B; 1.90 min: 95% B; 1.91 min: 15% B; 2.20 min: 15% B. Injection volume: 1 μL.
Animals: 3 male SD rats with a weight range of 200-220 g were purchased and kept in the laboratory of the Experimental Animal Center for 3 days and then used. They were fasted for 12 hours predose and 4 hours after dosing. Drinking water was free during the test. After the rats were gavage, blood samples were taken according to the established time point.
Solvent: 0.4% ethanol+0.4% Tween80+99.2% (0.5% methylcellulose M450). Preparation of the solution for intragastric administration: Compounds were accurately weighed and added to the solvent. The mixture was then subjected to vortex mixing and sonication until a homogeneous suspension was achieved, thereby preparing medicinal solutions of the desired concentrations.
Compound samples: Typically, multiple structurally analogous compounds (with molecular weights differing by more than 2 units) were accurately weighed and administered together (cassette PK). This approach allows for the simultaneous screening of multiple compounds and comparison of their oral absorption rates. Single compound administration was also employed to study the pharmacokinetics of drug samples in rats.
After intragastric administration, blood was collected from the jugular vein at 0.25, 0.5, 1, 2, 4, 8, 10 and 24 hours. Transfer 20 μL of plasma sample (for blank samples and internal standard blank samples, add 20 μL of blank plasma) to a 1.5 mL centrifuge tube, add 200 μL of internal standard solution (50% methanol in acetonitrile (concentration 100 ng/mL)) (for Double blank samples, add 200 μL of 50% methanol in acetonitrile solution). Vortex the samples for 5 minutes, then centrifuge at 14000 rpm and 4° C. for 5 minutes. Transfer 80 μL and add to 80 μL of water, mix uniformly, and submit for LC-MS/MS analysis.
The compounds were accurately weighed to prepare different concentrations, and quantitative analysis on mass spectrometry was performed to establish a standard curve, and then the concentration of the above-mentioned compound in the plasma was tested to obtain its concentration at different time points. All measurement data were collected and processed by relevant software, and the statistical moment method was used to calculate the pharmacokinetic parameters (mainly including kinetic parameters Tmax, T1/2, Cmax, AUC0-24 h etc).

`CCOc1cncc(-c2ccc(NC(=O)C3(c4ccnc(NS(=O)(=O)C5CC5)n4)CCN(C4CC(=C(F)F)C4)CC3)nc2)n1` (stereo not shown) [Compound 31] showed an IC50 [1] of under 100 nM and an IC50 [2] of under 50 nM.

`CCOc1cncc(-c2ccc(NC(=O)C3(c4ccnc(NS(=O)(=O)C5CC5)n4)CCC(=CC4CCOCC4)CC3)nc2)n1` (stereo not shown) [Compound 32] showed an IC50 [1] of under 25 nM, an IC50 [2] of under 15 nM and an AUC(0-t) ([3]; 3 mg/kg) of 15700 ng·h/mL. For the same compound, the Cmax ([3]; 3 mg/kg) was 4020 ng/mL, the Tmax ([3]; 3 mg/kg) was 0.83 h and the half-life ([3]; 3 mg/kg) was 1.34 h.

Compound `CCOc1cncc(-c2ccc(NC(=O)C3(c4ccnc(NS(=O)(=O)C5CC5)n4)CCC(=CC4COC4)CC3)nc2)n1` (stereo not shown) [Compound 36] has an IC50 [1] of under 25 nM, an IC50 [2] of under 5 nM and an AUC(0-t) ([3]; 3 mg/kg) of 6250 ng·h/mL. For the same compound, the Cmax ([3]; 3 mg/kg) was 3770 ng/mL, the Tmax ([3]; 3 mg/kg) was 0.25 h and the half-life ([3]; 3 mg/kg) was 2.8 h.

Compound `CCOc1cncc(-c2ccc(NC(=O)C3(c4ccnc(NS(=O)(=O)C5CC5)n4)CCC(=C(C)F)CC3)nc2)n1` (stereo not shown) [Compound 37] has an IC50 [1] of under 25 nM and an IC50 [2] of under 30 nM.

For `CCOc1cncc(-c2ccc(NC(=O)C3(c4ccnc(NS(=O)(=O)C5CC5)n4)CCC(=C(F)CO)CC3)nc2)n1` (stereo not shown) [Compound 39], the IC50 [1] was under 25 nM, the IC50 [2] was under 15 nM and the AUC(0-t) ([3]; 2 mg/kg) was 1470 ng·h/mL. The Cmax ([3]; 2 mg/kg) was 837 ng/mL, the Tmax ([3]; 2 mg/kg) was 1.33 h and the half-life ([3]; 2 mg/kg) was 2.48 h.

For `CCOc1cncc(-c2ccc(NC(=O)C3(c4ccnc(NS(=O)(=O)C5CC5)n4)CCC(=CCCO)CC3)nc2)n1` (stereo not shown) [Compound 44], the IC50 [1] was under 25 nM, the IC50 [2] was under 15 nM and the AUC(0-t) ([3]; 2 mg/kg) was 33 ng·h/mL. It also gave a Cmax ([3]; 2 mg/kg) of 10.5 ng/mL, a Tmax ([3]; 2 mg/kg) of 1.17 h and a half-life ([3]; 2 mg/kg) of 1.77 h.

For `CCOc1cncc(-c2ccc(NC(=O)C3(c4ccnc(NS(=O)(=O)C5CC5)n4)CCC(=CCCOC)CC3)nc2)n1` (stereo not shown) [Compound 45], the IC50 [1] was under 25 nM and the IC50 [2] was under 30 nM.

With `CCOc1cncc(-c2ccc(NC(=O)C3(c4ccnc(NS(=O)(=O)C5CC5)n4)CCC(=C(C)CO)CC3)nc2)n1` (stereo not shown) [Compound 47] the IC50 [1] was under 25 nM, the IC50 [2] was under 15 nM and the AUC(0-t) ([3]; 2 mg/kg) was 1410 ng·h/mL. It also gave a Cmax ([3]; 2 mg/kg) of 1820 ng/mL, a Tmax ([3]; 2 mg/kg) of 0.25 h and a half-life ([3]; 2 mg/kg) of 2.01 h.

Work on `CCOc1cncc(-c2ccc(NC(=O)C3(c4ccnc(NS(=O)(=O)C5CC5)n4)CC(=CC4CCOCC4)C3)nc2)n1` (stereo not shown) [Compound 48] yielded an IC50 [1] of under 100 nM and an IC50 [2] of under 30 nM.

With `CCOc1cncc(-c2ccc(NC(=O)C3(c4ccnc(NS(=O)(=O)C5CC5)n4)CCC(=C(F)CN4CCOCC4)CC3)nc2)n1` (stereo not shown) [Compound 54] the IC50 [1] was under 50 nM and the IC50 [2] was under 50 nM.

Work on `CCOc1cncc(-c2ccc(NC(=O)C3(c4ccnc(NS(=O)(=O)C5CC5)n4)CCC(=Cc4cccnc4)CC3)nc2)n1` (stereo not shown) [Compound 55] yielded an IC50 [1] of under 25 nM and an IC50 [2] of under 50 nM.

Compound `CCOc1cncc(-c2ccc(NC(=O)C3(c4ccnc(NS(=O)(=O)C5CC5)n4)CCC(=CC4(C)COC4)CC3)nc2)n1` (stereo not shown) [Compound 62] has an IC50 [1] of under 25 nM and an IC50 [2] of under 15 nM.

In the case of `CCOc1cncc(-c2ccc(NC(=O)C3(c4ccnc(NS(=O)(=O)C5CC5)n4)CCC(=C(F)CC(C)(C)O)CC3)nc2)n1` (stereo not shown) [Compound 67], the IC50 [1] is reported as under 50 nM and the IC50 [2] is reported as under 50 nM.
